Target: c-kit kinase (Homo sapiens (Human), UniProt P10721)
Assay: c-Kit biochemical assay (AlphaScreen)
Conditions: c-kit biochemical inhibitory activity
Outline: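 AlphaScreen of biotin-(E4Y)3 (100 nM) phosphorylation by c-kit (0.1 ng) in HEPES pH 7.2, Mg/Mn, 10 μM ATP, 5% DMSO, 1 h at room temperature; variant uses 100 μM ATP, 30 nM biotin-(E4Y)10, 1 ng enzyme. PY20 acceptor/streptavidin donor signal versus 8-point concentration gives IC50.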

Sequence of c-kit kinase (P10721 26-976): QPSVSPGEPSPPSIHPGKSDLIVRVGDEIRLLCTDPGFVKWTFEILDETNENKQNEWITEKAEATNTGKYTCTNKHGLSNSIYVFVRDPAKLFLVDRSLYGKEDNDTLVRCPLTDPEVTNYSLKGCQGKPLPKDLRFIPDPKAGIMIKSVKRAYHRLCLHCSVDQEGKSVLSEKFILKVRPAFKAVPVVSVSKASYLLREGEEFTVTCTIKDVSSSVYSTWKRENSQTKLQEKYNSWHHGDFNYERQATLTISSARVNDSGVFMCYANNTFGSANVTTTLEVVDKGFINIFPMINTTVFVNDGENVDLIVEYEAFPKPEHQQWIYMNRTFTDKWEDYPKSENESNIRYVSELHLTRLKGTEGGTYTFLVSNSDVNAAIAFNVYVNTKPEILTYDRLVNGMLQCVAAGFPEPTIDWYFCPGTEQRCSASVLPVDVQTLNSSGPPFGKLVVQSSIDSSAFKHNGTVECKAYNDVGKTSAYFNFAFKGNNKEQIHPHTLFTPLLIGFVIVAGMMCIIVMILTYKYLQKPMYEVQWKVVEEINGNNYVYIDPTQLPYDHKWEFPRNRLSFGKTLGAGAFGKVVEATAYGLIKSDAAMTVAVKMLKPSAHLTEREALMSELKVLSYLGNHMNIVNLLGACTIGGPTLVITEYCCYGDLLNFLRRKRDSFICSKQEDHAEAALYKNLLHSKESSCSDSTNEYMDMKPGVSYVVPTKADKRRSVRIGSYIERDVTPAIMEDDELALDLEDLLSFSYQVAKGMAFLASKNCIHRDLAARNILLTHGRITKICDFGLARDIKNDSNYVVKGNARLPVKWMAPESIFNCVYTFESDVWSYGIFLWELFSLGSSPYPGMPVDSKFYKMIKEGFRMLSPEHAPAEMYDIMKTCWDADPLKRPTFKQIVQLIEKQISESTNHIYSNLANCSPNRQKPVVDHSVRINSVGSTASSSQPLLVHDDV

Compound | IC50
O=C(Nc1cnc2[nH]c(-c3ccccc3)cc2c1)c1[nH]ncc1Br [P-2005, 4-bromo-N-(2-phenyl-1H-pyrrolo[2,3-b]pyridin-5-yl)-1H-pyrazole-5-carboxamide] | 1 to 10 µM
Cc1n[nH]c(C(=O)Nc2cnc3[nH]c(-c4ccccc4)cc3c2)c1C [P-2007, 3,4-dimethyl-N-(2-phenyl-1H-pyrrolo[2,3-b]pyridin-5-yl)-1H-pyrazole-5-carboxamide] | 0.0001 to 1 µM
Cc1[nH]nc(C(=O)Nc2cnc3[nH]c(-c4ccc(N5CCOCC5)cc4)cc3c2)c1C [P-2059, 4,5-dimethyl-N-[2-(4-morpholinophenyl)-1H-pyrrolo[2,3-b]pyridin-5-yl]-1H-pyrazole-3-carboxamide] | 0.0001 to 1 µM
Cc1n[nH]c(C(=O)Nc2cnc3[nH]c(C4=CCN(C(=O)C5CC5)C4)cc3c2)c1Cl [P-2060, 4-chloro-N-[2-[1-(cyclopropanecarbonyl)-2,5-dihydropyrrol-3-yl]-1H-pyrrolo[2,3-b]pyridin-5-yl]-3-methyl-1H-pyrazole-5-carboxamide] | 0.0001 to 1 µM
CC(=O)N1CC=C(c2cc3cc(NC(=O)c4[nH]nc(C)c4Cl)cnc3[nH]2)CC1 [P-2061, N-[2-(1-acetyl-3,6-dihydro-2H-pyridin-4-yl)-1H-pyrrolo[2,3-b]pyridin-5-yl]-4-chloro-3-methyl-1H-pyrazole-5-carboxamide] | 0.0001 to 1 µM
Cc1n[nH]c(C(=O)Nc2cnc3[nH]c(C4=CCN(C(=O)N5CCOCC5)C4)cc3c2)c1Cl [P-2062, 4-chloro-3-methyl-N-[2-[1-(morpholine-4-carbonyl)-2,5-dihydropyrrol-3-yl]-1H-pyrrolo[2,3-b]pyridin-5-yl]-1H-pyrazole-5-carboxamide] | 0.0001 to 1 µM
Cc1n[nH]c(C(=O)Nc2cnc3[nH]c(-c4cccc(N(C)C)c4)cc3c2)c1C [P-2064, N-[2-[3-(dimethylamino)phenyl]-1H-pyrrolo[2,3-b]pyridin-5-yl]-3,4-dimethyl-1H-pyrazole-5-carboxamide] | 0.0001 to 1 µM
Cc1n[nH]c(C(=O)Nc2cnc3[nH]c(-c4c(C)noc4C)cc3c2)c1C [P-2065, N-[2-(3,5-dimethylisoxazol-4-yl)-1H-pyrrolo[2,3-b]pyridin-5-yl]-3,4-dimethyl-1H-pyrazole-5-carboxamide] | 1 to 10 µM
CNC(=O)c1ccc(-c2cc3cc(NC(=O)c4[nH]nc(C)c4C)cnc3[nH]2)cc1 [P-2067, 3,4-dimethyl-N-[2-[4-(methylcarbamoyl)phenyl]-1H-pyrrolo[2,3-b]pyridin-5-yl]-1H-pyrazole-5-carboxamide] | 1 to 10 µM
Cc1[nH]nc(C(=O)Nc2cnc3[nH]c(-c4ccnc(N5CCN(C)CC5)c4)cc3c2)c1C [P-2069, 4,5-dimethyl-N-[2-[2-(4-methylpiperazin-1-yl)-4-pyridyl]-1H-pyrrolo[2,3-b]pyridin-5-yl]-1H-pyrazole-3-carboxamide] | 1 to 10 µM
Cc1[nH]nc(C(=O)Nc2cnc3[nH]c(-c4cccc(N5CCOCC5)c4)cc3c2)c1C [P-2070, 4,5-dimethyl-N-[2-(3-morpholinophenyl)-1H-pyrrolo[2,3-b]pyridin-5-yl]-1H-pyrazole-3-carboxamide] | 1 to 10 µM
Cc1n[nH]c(C(=O)Nc2cnc3[nH]c(C4=CCN(C(=O)CN5CCOCC5)CC4)cc3c2)c1C [P-2073, 3,4-dimethyl-N-[2-[1-(2-morpholinoacetyl)-3,6-dihydro-2H-pyridin-4-yl]-1H-pyrrolo[2,3-b]pyridin-5-yl]-1H-pyrazole-5-carboxamide] | 1 to 10 µM
Cc1n[nH]c(C(=O)Nc2cnc3[nH]c(C4=CCN(C(=O)C(O)CO)CC4)cc3c2)c1C (stereo not drawn) [P-2074, N-[2-[1-(2,3-dihydroxypropanoyl)-3,6-dihydro-2H-pyridin-4-yl]-1H-pyrrolo[2,3-b]pyridin-5-yl]-3,4-dimethyl-1H-pyrazole-5-carboxamide] | 0.0001 to 1 µM
Cc1n[nH]c(C(=O)Nc2cnc3[nH]c(-c4cccc(N5CCCC5)c4)cc3c2)c1C [P-2079, 3,4-dimethyl-N-[2-(3-pyrrolidin-1-ylphenyl)-1H-pyrrolo[2,3-b]pyridin-5-yl]-1H-pyrazole-5-carboxamide] | 1 to 10 µM
Cc1n[nH]c(C(=O)Nc2cnc3[nH]c(C4=CCC(N)CC4)cc3c2)c1C (stereo not drawn) [P-2080, N-[2-(4-aminocyclohexen-1-yl)-1H-pyrrolo[2,3-b]pyridin-5-yl]-3,4-dimethyl-1H-pyrazole-5-carboxamide] | 1 to 10 µM
Cc1n[nH]c(C(=O)Nc2cnc3[nH]c(-c4ccc(C#N)c(N5CCOCC5)c4)cc3c2)c1C [P-2081, N-[2-(4-cyano-3-morpholino-phenyl)-1H-pyrrolo[2,3-b]pyridin-5-yl]-3,4-dimethyl-1H-pyrazole-5-carboxamide] | 1 to 10 µM
Cc1n[nH]c(C(=O)Nc2cnc3[nH]c(-n4cccn4)cc3c2)c1C [P-2112, 3,4-dimethyl-N-(2-pyrazol-1-yl-1H-pyrrolo[2,3-b]pyridin-5-yl)-1H-pyrazole-5-carboxamide] | 1 to 10 µM
Cc1cc(C(=O)Nc2cnc3[nH]c(-n4cccn4)cc3c2)[nH]n1 [P-2116, 3-methyl-N-(2-pyrazol-1-yl-1H-pyrrolo[2,3-b]pyridin-5-yl)-1H-pyrazole-5-carboxamide] | 10 to 200 µM
Cc1n[nH]c(C(=O)Nc2cnc3[nH]c(-c4cccc(N5CCN(C(=O)C6CC6)CC5)c4)cc3c2)c1C [P-2118, N-[2-[3-[4-(cyclopropanecarbonyl)piperazin-1-yl]phenyl]-1H-pyrrolo[2,3-b]pyridin-5-yl]-3,4-dimethyl-1H-pyrazole-5-carboxamide] | 10 to 200 µM
Cc1n[nH]c(C(=O)Nc2cnc3sc(-c4ccccc4)nc3c2)c1C [P-2144, 3,4-dimethyl-N-(2-phenylthiazolo[5,4-b]pyridin-6-yl)-1H-pyrazole-5-carboxamide] | 1 to 10 µM
Cc1n[nH]c(C(=O)Nc2cnc3[nH]c(-c4ccc(C(=O)NC5CC5)cc4)cc3c2)c1C [P-2148, N-[2-[4-(cyclopropylcarbamoyl)phenyl]-1H-pyrrolo[2,3-b]pyridin-5-yl]-3,4-dimethyl-1H-pyrazole-5-carboxamide] | 0.0001 to 1 µM

From patent US10301280B2 (Plexxikon Inc., priority 2012, dated 2019)
